Results on 1 compound are retold here after patent US8232315B2, “Methods for treating drug addiction and improving addiction-related behavior” (SK Biopharmaceuticals Co., Ltd., priority 2009, dated 2012).

Series [1] concerns rats trained to discriminate cocaine (10 mg/kg) from saline. In words: Substitution for the discriminative stimulus effects of cocaine in rats (two-lever drug discrimination). Type of series: in vivo, Sprague-Dawley rats. Conditions: for ED50: Rattus norvegicus, linear regression against log10 doses from 10 to 100 mg/kg. The protocol:
Test compound was tested for its ability to substitute for the discriminative stimulus effects of cocaine (10 mg/kg) in rats.
Six male Sprague-Dawley rats were trained to discriminate cocaine (10 mg/kg) from saline using a two-lever choice methodology. Food was available as a reinforcer under a fixed ratio 10 schedule when responding occurred on the injection appropriate lever. All tests occurred in standard, commercially available chambers (Coulbourn Instruments), using 45 mg food pellets (Bioserve) as reinforcers.
Training sessions occurred in a double alternating fashion, and tests were conducted between pairs of identical training sessions (i.e., between either two saline or two cocaine training sessions). Tests occurred only if, in the two preceding training sessions, subjects met the criteria of emitting 85% of responses on the injection correct lever for both the first reinforcer (first fixed ratio) and the total session. Test sessions lasted for twenty minutes, or until twenty reinforcers had been obtained. Doses of the test compound for which fewer, than three rats completed the first fixed ratio were not considered in the characterization of discriminative stimulus effects.
Intraperitoneal injections (1 ml/kg) of test compound, or its vehicle (0.9% saline), occurred 60 minutes prior to the start of the test session. A starting dose for test compound of 2.5 mg/kg was determined based upon data supplied by the project officer, and a dose range of 2.5 to 100 mg/kg was examined.

In series [2] the test system is monkeys trained to discriminate cocaine (0.40 mg/kg) from saline. In words: Cocaine drug discrimination (substitution protocol) in rhesus monkeys. Type of series: in vivo, rhesus monkeys (Macaca mulatta). Conditions: for ED50: Primates, in Macaca mulatta, cumulative dosing, read-out: ED50 in producing cocaine-appropriate responding; for Effect on response rates: substituting doses of test compound / training dose of cocaine, relative to saline control. The source says:
Subjects: The subjects were four male rhesus monkeys (Macaca mulatta) each weighing 7.0-8.0 kg. Each monkey was maintained on a diet of 7-12 monkey biscuits (Purina Monkey Chow Jumbo #5037) and one piece of fresh fruit per day. During the week, all food was delivered after the experimental session, whereas on weekends, food was delivered between 9 a.m. and noon. Water was freely available at all times. The room in which the monkeys were housed was maintained on a 12-hr light/dark cycle, with lights on from 7 a.m. to 7 p.m.
Apparatus: Each monkey was housed individually in a well-ventilated, stainless steel chamber (56×71×69 cm). The home cages of all monkeys were modified to include an operant panel (28×28 cm) mounted on the front wall. Three square translucent response keys (6.4×6.4 cm) were arranged 2.54 cm apart in a horizontal row 3.2 cm from the top of the operant panel. Each key could be transilluminated by red or green stimulus lights (Superbright LED'S). In addition, the operant panel supported an externally mounted pellet dispenser (Gerbrands, Model G53 10, Arlington, Mass.) that delivered 1 gm fruit-flavored food pellets (Precision Primate Pellets Formula L/I Banana Flavor, P. J. Noyes Co., Lancaster, N.H.) to a food receptacle mounted on the cage beneath the operant response panel. Operation of the operant panels and data collection were accomplished with IBM-compatible computers and interface systems (MedAssociates; St. Albans, Vt.) located in a separate room.
Discrimination Training: Discrimination training was conducted 5 days per week during daily sessions composed of multiple cycles. Each cycle consisted of a 15-min time-out period followed by a 5-min response period. During the time-out, all stimulus lights were off, and responding had no scheduled consequences. During the response period, the right and left response keys were transilluminated red or green, and monkeys could earn up to 10 food pellets by responding under a FR 30 schedule of food presentation. For all four monkeys in this study, the left key was illuminated green, and the right key was illuminated red. The center key was not illuminated at any time, and responding on the center key had no scheduled consequences. If all available food pellets were delivered before the end of the 5-min response period, the stimulus lights transilluminating the response keys were turned off, and responding had no scheduled consequences for the remainder of the 5-min period.
On training days, monkeys were given an i.m. injection of either saline or 0.40 mg/kg cocaine 5-min after the beginning of each time-out period (i.e., 10 min before the response period). Following the administration of saline, responding on only the green key (the saline-appropriate key) produced food, whereas following administration of 0.40 mg/kg cocaine, only responding on the red key (the drug-appropriate key) produced food. Responses on the inappropriate key reset the FR requirement on the appropriate key. Sessions consisted of 1 to 5 cycles, and if the training dose of cocaine was administered, it was administered only during the last cycle. Thus, training days consisted of 0 to 5 saline cycles followed by 0 to 1 drug cycles.
During each response period, 3 dependent variables were determined using the following equations.
1) Percent injection-appropriate responding prior to delivery of the first reinforcer.
2) Percent injection-appropriate responding for the entire response period.
Monkeys were considered to have acquired cocaine discrimination when the following three criteria were met for 7 of 8 consecutive training sessions: 1) the percent injection-appropriate responding prior to delivery of the first reinforcer was greater than or equal to 80% for all cycles; 2) the percent injection-appropriate responding for the entire cycle was greater than or equal to 90% for all cycles; 3) response rates during saline training cycles were greater than 0.5 responses per second. […]

Structures are written as SMILES. “Also recorded” adds a separate entry of the source. Like-named read-outs stand apart in the source and are kept apart here.

With `NC(=O)OC[C@H](N)Cc1ccccc1` [test compound, O-carbamoyl-(D)-phenylalaminol], the ED50 in series [1] (i.p. 60 min before session, read-out: ED50, substitution for the discriminative stimulus effects of 10 mg/kg cocaine, total session) was 37.4 mg/kg; in series [1] (ip, read-out: ED50, substitution for cocaine, first reinforcer) it was 37.5 mg/kg; in series [2] (monkey 92N012), 1.8 mg/kg; in series [2] (monkey 153F), 5.6 mg/kg; in series [2] (monkey 186F), 13.4 mg/kg; in series [2] (monkey L958), 5.6 mg/kg. For the same compound, in series [1] (dose range 2.5 to 100 mg/kg i.p.), the “Substitution for the discriminative stimulus effects of 10 mg/kg cocaine” value was “substituted fully; also recorded: fully substituted”. For the same compound, the “Response rate, % of vehicle control, first reinforcer” value in series [1] (following 100 mg/kg i.p.) worked out at 37%. The “Response rate, % of vehicle control, total session” value in series [1] (following 100 mg/kg i.p.) is reported as 41%. For the same compound, in series [2] (across the dose range tested (0.1-18 mg/kg)), the Overt behavioral effects entry is “did not produce noticeable overt behavioral effects”. In addition, in series [2] (all four monkeys, 0.1-18 mg/kg), the “Substitution for the cocaine training stimulus” value is “dose-dependent and complete substitution; also recorded: substituted completely”. For the same compound, the “Effect on response rates” value in series [2] (monkey 92N012) is on record as “increased response rates”; in series [2] (monkey 153F), “decreased response rates”; in series [2] (monkey 186F) it was “had no effect on response rates”. For the same compound, the “Potency relative to cocaine (fold less potent)” value in series [2] (rhesus monkeys, cocaine-like behavioral effects) was “approximately 20 fold”.
